Measurements: ChEMBL document CHEMBL1152254, “Synthesis, biological evaluation, and molecular modeling investigation of chiral 2-(4-chloro-phenoxy)-3-phenyl-propanoic acid derivatives with PPARalpha and PPARgamma agonist activity” (Bioorg Med Chem, 2008)
Activity calls are given as the source filed them. The rule behind the calls is not given here.

Experiments:
Assay type in all cases: cell-based
[1] = molecular target: T1, Peroxisome proliferator-activated receptor alpha (Homo sapiens) (UniProt Q07869); assay: Agonist activity at human PPARalpha ligand binding domain expressed in human HepG2 cells co-transfected with Gal4 by luciferase reporter gene assay relative to Wy-14,643
T1 sequence (whole entry): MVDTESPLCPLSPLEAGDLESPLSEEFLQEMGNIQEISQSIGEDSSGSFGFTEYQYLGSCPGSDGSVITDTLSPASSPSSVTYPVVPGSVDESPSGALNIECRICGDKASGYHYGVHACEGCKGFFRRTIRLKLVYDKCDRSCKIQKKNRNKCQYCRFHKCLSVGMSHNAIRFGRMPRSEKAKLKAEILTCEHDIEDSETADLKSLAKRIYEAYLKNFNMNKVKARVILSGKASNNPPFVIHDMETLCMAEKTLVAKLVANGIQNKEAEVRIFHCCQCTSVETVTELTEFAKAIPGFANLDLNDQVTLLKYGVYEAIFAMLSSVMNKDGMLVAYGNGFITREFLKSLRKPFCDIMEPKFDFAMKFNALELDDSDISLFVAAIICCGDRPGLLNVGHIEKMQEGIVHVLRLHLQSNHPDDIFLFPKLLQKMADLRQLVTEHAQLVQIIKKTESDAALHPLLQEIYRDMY

[2] = molecular target: T2, Peroxisome proliferator-activated receptor alpha (Homo sapiens, UniProt Q07869); assay: (§1) Agonist activity at human PPARalpha ligand binding domain expressed in human HepG2 cells co-transfected with Gal4 by luciferase reporter gene assay
T2 sequence (Q07869 whole entry): T1 sequence (whole entry)

[3] = molecular target: T3, Peroxisome proliferator-activated receptor gamma (Homo sapiens, UniProt P37231); assay: (§2) Agonist activity at human PPARgamma ligand binding domain expressed in human HepG2 cells co-transfected with Gal4 by luciferase reporter gene assay
T3 sequence (P37231 whole entry): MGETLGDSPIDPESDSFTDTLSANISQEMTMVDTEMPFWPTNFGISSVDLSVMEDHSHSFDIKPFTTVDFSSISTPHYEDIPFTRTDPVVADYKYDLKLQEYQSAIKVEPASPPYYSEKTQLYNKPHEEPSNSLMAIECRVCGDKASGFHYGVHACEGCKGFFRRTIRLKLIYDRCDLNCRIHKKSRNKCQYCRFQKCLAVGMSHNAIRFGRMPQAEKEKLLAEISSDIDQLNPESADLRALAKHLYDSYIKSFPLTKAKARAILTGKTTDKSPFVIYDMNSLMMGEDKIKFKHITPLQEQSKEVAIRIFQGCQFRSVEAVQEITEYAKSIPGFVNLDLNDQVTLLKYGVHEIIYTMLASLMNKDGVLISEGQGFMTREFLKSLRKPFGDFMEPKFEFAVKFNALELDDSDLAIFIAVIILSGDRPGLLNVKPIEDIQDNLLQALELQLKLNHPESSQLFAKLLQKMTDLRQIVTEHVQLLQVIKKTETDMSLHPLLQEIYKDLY

[4] = molecular target: T1, Peroxisome proliferator-activated receptor alpha (Homo sapiens); assay: as §1
[5] = molecular target: T4, Peroxisome proliferator-activated receptor gamma (Homo sapiens) (UniProt P37231); assay: as §2
T4 sequence (whole entry): T3 sequence (P37231 whole entry)

SMILES	Efficacy [1] [%]	EC50 [2] [nM]	EC50 [3] [nM]	Activity [1]	Activity [4]	Activity [5]
O=C(O)[C@H](Cc1ccccc1)Oc1ccc(Cl)cc1	48	14500	7940	–	–	–
CCCc1ccc(CC(Oc2ccc(Cl)cc2)C(=O)O)cc1 (stereo not drawn)	39	350	1390	–	–	–
CCCCCCc1ccc(CC(Oc2ccc(Cl)cc2)C(=O)O)cc1 (stereo not drawn)	56	450	–	–	–	–
O=C(O)[C@H](Cc1ccc(C(F)(F)F)cc1)Oc1ccc(Cl)cc1	69	420	3650	–	–	–
O=C(O)[C@H](Cc1ccc(Oc2ccccc2)cc1)Oc1ccc(Cl)cc1	68	27	870	–	–	–
O=C(O)[C@H](Cc1ccc(-c2ccccc2)cc1)Oc1ccc(Cl)cc1	70	49	1120	–	–	–
O=C(O)[C@H](Cc1ccc(-c2cccs2)cc1)Oc1ccc(Cl)cc1	71	65	590	–	–	–
CCCc1ccccc1CC(Oc1ccc(Cl)cc1)C(=O)O (stereo not drawn)	43	1430	3680	–	–	–
O=C(O)[C@@H](Cc1ccc(Oc2ccccc2)cc1)Oc1ccc(Cl)cc1	15	700	11300	–	–	–
CCCCCCc1ccccc1CC(Oc1ccc(Cl)cc1)C(=O)O (stereo not drawn)	–	–	–	inactive	inactive	inactive
CCCc1cc(Cl)ccc1OC(Cc1ccccc1)C(=O)O (stereo not drawn)	18	–	–	–	–	–
CN(CCOc1ccc(CC2SC(=O)NC2=O)cc1)c1ccccn1 (stereo not drawn)	100	–	–	–	–	inactive
Cc1cccc(Nc2cc(Cl)nc(SCC(=O)O)n2)c1C	–	–	–	inactive	inactive	–
O=C(O)C(Cc1ccccc1-c1ccccc1)Oc1ccc(Cl)cc1 (stereo not drawn)	–	–	–	inactive	inactive	inactive
Cc1ccccc1CC(Oc1ccc(Cl)cc1)C(=O)O (racemic)	50	9250	8540	–	–	–
Cc1ccc(CC(Oc2ccc(Cl)cc2)C(=O)O)cc1 (racemic)	53	2810	4360	–	–	–
O=C(O)C(Cc1cccc(Oc2ccccc2)c1)Oc1ccc(Cl)cc1 (racemic)	57	240	3060	–	–	–

SMILES	Efficacy [1] [%]	EC50 [2] [nM]	EC50 [3] [nM]	Activity [1]	Activity [4]	Activity [5]
O=C(O)C(Cc1ccc(Cl)cc1)Oc1ccc(Cl)cc1 (racemic)	49	2230	3160	–	–	–
O=C(O)C(Cc1ccccc1Oc1ccccc1)Oc1ccc(Cl)cc1 (racemic)	40	1140	–	–	–	inactive
O=C(O)C(Cc1ccccc1C(F)(F)F)Oc1ccc(Cl)cc1 (racemic)	43	2490	4030	–	–	–
O=C(O)C(Cc1ccc(Oc2ccccc2)cc1)Oc1ccc(Cl)cc1 (racemic)	58	64	1060	–	–	–
O=C(O)C(Cc1ccccc1)Oc1ccc(Cl)cc1Br (racemic)	41	1650	–	–	–	–
O=C(O)C(Cc1ccccc1Cl)Oc1ccc(Cl)cc1 (racemic)	44	2180	2230	–	–	–
O=C(O)C(Cc1ccccc1)Oc1ccc(Cl)c(Cl)c1 (racemic)	27	4490	2550	–	–	–
O=C(O)C(Cc1ccccc1Br)Oc1ccc(Cl)cc1 (racemic)	57	2250	2480	–	–	–
O=C(O)C(Cc1ccc(Br)cc1)Oc1ccc(Cl)cc1 (racemic)	46	1100	2070	–	–	–
O=C(O)C(Cc1ccccc1)Oc1ccc(Cl)cc1Cl (racemic)	50	2120	–	–	–	–
CCCCCCc1cc(Cl)ccc1OC(Cc1ccccc1)C(=O)O (racemic)	–	–	–	inactive	inactive	inactive
Cc1cc(Cl)cc(C)c1OC(Cc1ccccc1)C(=O)O (racemic)	–	–	–	inactive	inactive	inactive
Cc1cc(Cl)ccc1OC(Cc1ccccc1)C(=O)O (racemic)	34	–	–	–	–	–
Cc1cccc(C)c1CC(Oc1ccc(Cl)cc1)C(=O)O (racemic)	–	–	–	inactive	inactive	inactive
O=C(O)C(Cc1c(Cl)cccc1Cl)Oc1ccc(Cl)cc1 (racemic)	–	–	–	inactive	inactive	inactive
O=C(O)C(Cc1ccccc1)Oc1c(Cl)cc(Cl)cc1Cl (racemic)	–	–	–	inactive	inactive	inactive
O=C(O)C(Cc1ccccc1)Oc1ccc(Cl)cc1-c1ccccc1 (racemic)	–	–	–	inactive	inactive	inactive
